{"source": "patent US20140161720A1", "about": "“TREATMENT OF ANGIOGENIC- OR VASCULAR-ASSOCIATED DISEASES” (THE GENERAL HOSPITAL CORPORATION, priority 2011, published 2014)", "key": {"[1]": {"system": "zebrafish caudal fin regenerating vessels", "assay": "Caudal fin amputation, blood vessel regeneration", "format": "in vivo", "description": "For the regeneration experiments, caudal fins of zebrafish were amputated at approximately the 50% proximal-distal level (21). The amputated fish were kept in individual 250-ml fish tanks, and at least five fish were used in each group. Staging for normal blood vessel regeneration was carried out at 25° C. with TG(fli1:EGFP)y1 fish, with the same fin ray and vessels of each fish was photographed at different time intervals during the course of the time-lapse study.\nTo examine whether DAL has a similar antivascular effect on neovasculature in adult zebrafish, neovascularization was induced by amputating the caudal fin at the ˜50% proximal-distal level and fin rays and vessels were imaged from each fish over time. In control zebrafish caudal fins, amputated blood vessels healed their ends by 24 h post-amputation and then reconnected arteries and veins through anastomosis, with blood flow resuming at wound sites by 48 h after amputation (FIG. 2B)."}, "RhoA": {"system": "RhoA", "assay": "RhoA activity affinity purification assay (rhotekin RBD)", "format": "cell-based, human", "conditions": "HUVEC cells", "source_text": "Without wishing to be bound by theory, DAL brings about its antivascular effects by destabilizing cell adhesion through the actin cytoskeleton. It was next sought to identify which specific adhesion pathway it targets. Mechanical attachment at cell-cell adherens and tight junctions is regulated by dynamic changes in the actin cytoskeleton. Adherens junctions are composed of E-cadherin/β-catenin complexes and are connected to the actin cytoskeleton via sa-catenin (25-26), while tight junctions consist of transmembrane claudins and occludin and are associated with the actin cytoskeleton via ZO proteins (27-28). Therefore, potential targets of DAL in signaling pathways involved in actin remodeling were evaluated. […] Then, it was sought to determine whether Rho-GTPase family members are targets for DAL due to the disruption of cell adhesion and actin network remodeling along with inhibited motility. Rho-GTPases (e.g., Rac1) plays an important role in actin cytoskeletal organization and is involved in the coordination of cell adhesion (29). Furthermore, Rac1 is responsible for stabilizing endothelial cell junctions by opposing actin remodeling by Rho (30). In order to migrate, cancer cells employ dynamic remodeling of the actin cytoskeleton, form protrusive structures and generate forces necessary to produce cell translocation in the process regulated by Rho-GTPase Rac1. […]"}, "Rac1": {"system": "Rac1", "assay": "Rac1 protein level by western blot in HUVECs", "format": "cell-based, human", "conditions": "HUVEC, 10 μM for 24 hours", "description": "HUVEC cells were treated with 10 μM of DAL for 24 hours and then lysed. A western blot with anti-human Rac1 antibody is shown on top panel while the bottom panel represents a loading control. […] To enhance ubiquitination events, HUVEC cells were pretreated with the proteasome inhibitors lactacystin (2.5 mM) or MG-132 (0.2 mM) for one hour and subsequently treated with DAL (10 μM) of DAL for 24 hours. Duolink in situ was used for the detection of ubiquitinated Rac1 in DAL treated and untreated HUVEC cells. For the two Duolink PLA probes, primary mouse antibodies raised against human Rac1 and primary rabbit anti-ubiquitin were used. Fluorescent spots represent ubiquitinated Rac1. The nuclei with additionally stained DAPI.\nHowever, protein levels of Rac1 were reduced after DAL treatment (FIG. 6B). Next, it was assessed whether DAL can enhance Rac1 ubiquitination and therefore promote or speed up degradation (31-34). For the detection of Rac1 ubiquitination in HUVECs, Rac1-ubiquitin binding in situ was identified using a Duolink molecular proximity assay. In this assay, molecules thought to interact are targeted with fluorescent antibodies in situ, and individual interactions generate a signal detectable by microscopy only if secondary antibodies are located in close proximity to each other. […]"}}, "note": "“Also recorded” adds a separate entry of the source.", "data": [{"smiles": "CC1(C)C=CC2=C(O1)C(=O)c1ccccc1C2=O", "note": "[DAL, dehydro-alpha-lapachone]", "values": [{"measurement": "anastomotic bridges at the amputation plane", "setting": "[1]; 9 days after amputation", "value": "did not find such bridges"}, {"measurement": "anastomosis and plexus formation of regenerating vessels", "setting": "[1]; caudal fin after amputation", "value": "defects in anastomosis and plexus formation"}, {"measurement": "RhoA activity", "setting": "RhoA", "value": "no effect"}, {"measurement": "protein levels of Rac1", "setting": "Rac1", "value": "reduced; also recorded: decreases"}]}]}
